This is an account of results in US20240246937A1 (MERCK SHARP & DOHME LLC, priority 2021, published 2024).

Chain of recombinant IL4I1 (Q96RQ9 22-567): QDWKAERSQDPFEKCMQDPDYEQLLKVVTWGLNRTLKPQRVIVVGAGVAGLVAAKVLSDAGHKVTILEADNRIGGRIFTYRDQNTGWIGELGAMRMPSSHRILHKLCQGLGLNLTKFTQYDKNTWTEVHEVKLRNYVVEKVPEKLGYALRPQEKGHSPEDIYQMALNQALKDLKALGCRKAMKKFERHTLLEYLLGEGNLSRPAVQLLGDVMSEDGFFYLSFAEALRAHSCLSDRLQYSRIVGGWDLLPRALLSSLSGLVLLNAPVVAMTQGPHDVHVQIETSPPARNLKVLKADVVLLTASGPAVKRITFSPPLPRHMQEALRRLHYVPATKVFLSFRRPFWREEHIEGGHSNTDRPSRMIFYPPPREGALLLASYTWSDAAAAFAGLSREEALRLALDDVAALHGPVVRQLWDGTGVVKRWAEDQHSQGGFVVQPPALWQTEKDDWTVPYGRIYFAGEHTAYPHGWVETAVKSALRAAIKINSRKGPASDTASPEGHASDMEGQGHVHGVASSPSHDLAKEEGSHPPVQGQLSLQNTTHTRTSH

This test concerns the target recombinant IL4I1 (Homo sapiens (Human), UniProt Q96RQ9). The test is described as follows: IL4I1 Enzymatic Assay (Amplex Red/HRP coupled fluorescence detection of H2O2). In kind it is biochemical. The note with it: 240 min; recombinant IL4I1, four-hour pre-incubation with compound. A digest of the protocol:
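Recombinant human IL4I1 (1 nM final) pre-incubated 4 h with compound at ambient temperature in 50 mM Hepes pH 7.0, 0.005% Tween20. Started with 1 mM each Phe/Tyr/Trp plus Amplex Red/HRP; H2O2-derived resorufin fluorescence read after 120 min; EC50 from ten-point 1:3 titration, four-parameter fit.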
Regarding `O=C1C(=O)N(C23CC(C2)C3)CCN1Cc1ccc(-n2ccnn2)nn1` [Example 402, 1-((6-(1H-1,2,3-triazol-1-yl)pyridazin-3-yl)methyl)-4-(bicyclo[1.1.1]pentan-1-yl)piperazine-2,3-dione], the concentration for a half-maximal effect (EC50) turned out to be 36 nM.
For the compound `O=c1c(=O)n(C23CC(C2)C3)ccn1Cc1ccc(-n2nccn2)nn1` [Example 403, 1-((6-(2H-1,2,3-triazol-2-yl)pyridazin-3-yl)methyl)-4-(bicyclo[1.1.1]pentan-1-yl)-1,4-dihydropyrazine-2,3-dione], the EC50 stood at 17 nM.
As for `O=c1c(=O)n(C23CC(C2)C3)ccn1Cc1ccc(-n2ccnn2)nn1` [Example 404, 1-((6-(1H-1,2,3-triazol-1-yl)pyridazin-3-yl)methyl)-4-(bicyclo[1.1.1]pentan-1-yl)-1,4-dihydropyrazine-2,3-dione], the figure is 10 nM.
As for `O=C1C(=O)N(C23CC(C2)C3)CCN1Cc1ncc(-n2nccn2)cc1F` [Example 405, 1-(bicyclo[1.1.1]pentan-1-yl)-4-((3-fluoro-5-(2H-1,2,3-triazol-2-yl)pyridin-2-yl)methyl)piperazine-2,3-dione], the figure is 23 nM; as for `O=C1C(=O)N(C23CC(C2)C3)CCN1Cc1ccc(-n2nccn2)cc1` [Example 406, 1-(4-(2H-1,2,3-triazol-2-yl)benzyl)-4-(bicyclo[1.1.1]pentan-1-yl)piperazine-2,3-dione], 15 nM.
For the compound `O=C1C(=O)N(C23CC(C2)C3)CCN1Cc1ccc(-n2nccn2)cc1F` [Example 407, 1-(bicyclo[1.1.1]pentan-1-yl)-4-(2-fluoro-4-(2H-1,2,3-triazol-2-yl)benzyl)piperazine-2,3-dione], the EC50 stood at 27 nM.
As for `O=c1c(=O)n([C@H]2C[C@H]3C[C@H]3C2)ccn1Cc1ccc(-n2nccn2)cn1` [Example 408, 1-((5-(2H-1,2,3-triazol-2-yl)pyridin-2-yl)methyl)-4-((cis)-bicyclo[3.1.0]hexan-3-yl)-1,4-dihydropyrazine-2,3-dione], the figure is 8 nM; as for `O=c1c(=O)n(C2CCC2)ccn1Cc1ccc(-n2nccn2)nc1` [Example 409, 1-((6-(2H-1,2,3-triazol-2-yl)pyridin-3-yl)methyl)-4-cyclobutyl-1,4-dihydropyrazine-2,3-dione], 9 nM; as for `O=c1c(=O)n(C2CCC2)ccn1Cc1ccc(-n2ccnn2)nc1` [Example 410, 1-((6-(1H-1,2,3-triazol-1-yl)pyridin-3-yl)methyl)-4-cyclobutyl-1,4-dihydropyrazine-2,3-dione], 5 nM.
Regarding `O=c1c(=O)n(C23CC(C2)C3)ccn1Cc1ccc(-n2ccnn2)nc1` [Example 411, 1-((6-(1H-1,2,3-triazol-1-yl)pyridin-3-yl)methyl)-4-(bicyclo[1.1.1]pentan-1-yl)-1,4-dihydropyrazine-2,3-dione], the concentration for a half-maximal effect (EC50) came out at 7 nM.
With `O=c1c(=O)n(C23CC(C2)C3)ccn1Cc1ccc(-n2nccn2)nc1` [Example 412, 1-((6-(2H-1,2,3-triazol-2-yl)pyridin-3-yl)methyl)-4-(bicyclo[1.1.1]pentan-1-yl)-1,4-dihydropyrazine-2,3-dione], the EC50 was 19 nM.
Next, `N#CC1(n2ccn(Cc3ccc(-n4nccn4)cn3)c(=O)c2=O)CC1` [Example 413, 1-(4-((5-(2H-1,2,3-triazol-2-yl)pyridin-2-yl)methyl)-2,3-dioxo-3,4-dihydropyrazin-1(2H)-yl)cyclopropane-1-carbonitrile]: 66 nM; `CC1(n2ccn(Cc3ccc(-n4ccnn4)nc3)c(=O)c2=O)CC1` [Example 414, 1-((6-(1H-1,2,3-triazol-1-yl)pyridin-3-yl)methyl)-4-(1-methylcyclopropyl)-1,4-dihydropyrazine-2,3-dione]: 15 nM; `CC1(n2ccn(Cc3ccc(-n4nccn4)nc3)c(=O)c2=O)CC1` [Example 415, 1-((6-(2H-1,2,3-triazol-2-yl)pyridin-3-yl)methyl)-4-(1-methylcyclopropyl)-1,4-dihydropyrazine-2,3-dione]: 138 nM.
Next, `O=c1c(=O)n([C@H]2C[C@H]3C[C@H]3C2)ccn1Cc1ccc(-c2cccnc2)nn1` [Example 416, 1-((cis)-bicyclo[3.1.0]hexan-3-yl)-4-((6-(pyridin-3-yl)pyridazin-3-yl)methyl)-1,4-dihydropyrazine-2,3-dione]: 28 nM; `O=c1c(=O)n(C23CC(C2)C3)ccn1Cc1cc(-c2cccc(F)c2)on1` [Example 417, 1-(bicyclo[1.1.1]pentan-1-yl)-4-((5-(3-fluorophenyl)isoxazol-3-yl)methyl)-1,4-dihydropyrazine-2,3-dione]: 2 nM.
With `O=C1C(=O)N(C23CC(C2)C3)CCN1Cc1cc(-c2ccc(F)cc2)on1` [Example 418, 1-(bicyclo[1.1.1]pentan-1-yl)-4-((5-(4-fluorophenyl)isoxazol-3-yl)methyl)piperazine-2,3-dione], the EC50 was 6 nM.
Next, `O=c1c(=O)n(C23CC(C2)C3)ccn1Cc1cc(-c2ccc(F)cc2)on1` [Example 419, 1-(bicyclo[1.1.1]pentan-1-yl)-4-((5-(4-fluorophenyl)isoxazol-3-yl)methyl)-1,4-dihydropyrazine-2,3-dione]: 2 nM; `CC1(n2ccn(Cc3cc(-c4ccccc4)on3)c(=O)c2=O)CCC1` [Example 420, 1-(1-methylcyclobutyl)-4-((5-phenylisoxazol-3-yl)methyl)-1,4-dihydropyrazine-2,3-dione]: 5 nM.
`CC1(n2ccn(Cc3cc(-c4cccc(F)c4)on3)c(=O)c2=O)CCC1` [Example 421, 1-((5-(3-fluorophenyl)isoxazol-3-yl)methyl)-4-(1-methylcyclobutyl)-1,4-dihydropyrazine-2,3-dione]: the EC50 was determined as 5 nM.
Next, `CC1(n2ccn(Cc3cc(-c4ccc(F)cc4)on3)c(=O)c2=O)CCC1` [Example 422, 1-((5-(4-fluorophenyl)isoxazol-3-yl)methyl)-4-(1-methylcyclobutyl)-1,4-dihydropyrazine-2,3-dione]: 5 nM; `N#Cc1ccc(-c2cc(CN3CCN(C45CC(C4)C5)C(=O)C3=O)no2)cc1` [Example 423, 4-(3-((4-(bicyclo[1.1.1]pentan-1-yl)-2,3-dioxopiperazin-1-yl)methyl)isoxazol-5-yl)benzonitrile]: 19 nM.
Regarding `N#Cc1ccccc1-c1cc(CN2CCN(C34CC(C3)C4)C(=O)C2=O)no1` [Example 424, 2-(3-((4-(bicyclo[1.1.1]pentan-1-yl)-2,3-dioxopiperazin-1-yl)methyl)isoxazol-5-yl)benzonitrile], the EC50 is 19 nM.
Next, `O=C1C(=O)N(C2CCC2)CCN1Cc1ncc(-c2cccc(F)c2)s1` [Example 425, 1-cyclobutyl-4-((5-(3-fluorophenyl)thiazol-2-yl)methyl)piperazine-2,3-dione]: 8 nM.
Next, `O=C1C(=O)N(C2CCC2)CCN1Cc1ncc(-c2ccccc2F)s1` [Example 426, 1-cyclobutyl-4-((5-(2-fluorophenyl)thiazol-2-yl)methyl)piperazine-2,3-dione]: 5 nM; `O=c1c(=O)n(C23CC(C2)C3)ccn1Cc1cn(-c2ccccn2)nn1` [Example 427, 1-(bicyclo[1.1.1]pentan-1-yl)-4-((1-(pyridin-2-yl)-1H-1,2,3-triazol-4-yl)methyl)-1,4-dihydropyrazine-2,3-dione]: 19 nM.
